For this experiment, the system named is 422866-222-R5-J1-PDC complex spheroids viability. Put plainly: Anticancer human tumor 422866-222-R5-J1-PDC patient-derived pancreatic adenocarcinoma cell line growth inhibition [RAS]. The note with it: for viability, T/C: stronger effect = lower value. In outline:
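Agents were tested in combination matrices in half-log decrements from a top concentration at or near clinical Cmax (10 microM if undetermined). Targets were multi-cell spheroids of tumour lines plus HUVEC and MSC stromal cells.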

IC50 and viability, T/C data for two compounds are collected here from PubChem BioAssay AID2060901 (Molecular Pharmacology Branch, DTP, NCI, 2025).

The structures appear in SMILES notation.

What is called IC50 is the concentration that gives 50% inhibition. One may read the viability, T/C as the result in the treated group divided by that in the control group, in per cent.
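Note: spheroids exposed to compounds for 7 days.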
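Throughout, for viability, T/C: 100% = DMSO vehicle control viability.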

Regarding `C=CC(=O)Nc1cc(Nc2nccc(-c3cn(C)c4ccccc34)n2)c(OC)cc1N(C)CCN(C)C` + C=CC(=O)N1CCN(c2nc(OCC3CCCN3C)nc3c(F)c(-c4nc(N)cc(C)c4C(F)(F)F)c(Cl)cc23)C(C)C1, the IC50 is < 3.16 nM (curve of first compound, second compound 0.00316 µM); < 3.16 nM (curve of first compound, second compound 0.01 µM); < 3.16 nM (curve of first compound, second compound 0.0316 µM); < 3.16 nM (curve of first compound, second compound 0.1 µM); < 3.16 nM (curve of first compound, second compound 0.316 µM); < 3.16 nM (curve of first compound, second compound 1 µM). In addition, the viability, T/C reads like this: (second compound 0.00316 µM, first compound 0.00316 µM) 26.3%; (second compound 0.00316 µM, first compound 0.01 µM) 28.2%; (second compound 0.00316 µM, first compound 0.0316 µM) 29%; (second compound 0.00316 µM, first compound 0.1 µM) 28%; (second compound 0.00316 µM, first compound 0.316 µM) 18.5%; (second compound 0.00316 µM, first compound 1 µM) 12.4%. Moreover, the viability, T/C reads like this: (second compound 0.01 µM, first compound 0.00316 µM) 34.1%; (second compound 0.01 µM, first compound 0.01 µM) 21.1%; (second compound 0.01 µM, first compound 0.0316 µM) 20.5%; (second compound 0.01 µM, first compound 0.1 µM) 19.8%; (second compound 0.01 µM, first compound 0.316 µM) 17.3%; (second compound 0.01 µM, first compound 1 µM) 12.3%. Further, the viability, T/C (second compound 0.0316 µM, first compound 0.00316 µM) was 33.4%; the viability, T/C (second compound 0.0316 µM, first compound 0.01 µM) was 26.3%; the viability, T/C (second compound 0.0316 µM, first compound 0.0316 µM) is 21.5%; the viability, T/C (second compound 0.0316 µM, first compound 0.1 µM) is 16.5%; the viability, T/C (second compound 0.0316 µM, first compound 0.316 µM) was 17%; the viability, T/C (second compound 0.0316 µM, first compound 1 µM) is 12.2%. Further, the viability, T/C is, setting by setting: (second compound 0.1 µM, first compound 0.00316 µM) 22.8%; (second compound 0.1 µM, first compound 0.01 µM) 21.9%; (second compound 0.1 µM, first compound 0.0316 µM) 17.3%; (second compound 0.1 µM, first compound 0.1 µM) 17.6%; (second compound 0.1 µM, first compound 0.316 µM) 16.6%; (second compound 0.1 µM, first compound 1 µM) 11.9%. Besides, the viability, T/C is 19.7% (second compound 0.316 µM, first compound 0.00316 µM); 21.4% (second compound 0.316 µM, first compound 0.01 µM); 20% (second compound 0.316 µM, first compound 0.0316 µM); 21.8% (second compound 0.316 µM, first compound 0.1 µM); 18.1% (second compound 0.316 µM, first compound 0.316 µM); 14.2% (second compound 0.316 µM, first compound 1 µM). The viability, T/C reads like this: (second compound 1 µM, first compound 0.00316 µM) 20.5%; (second compound 1 µM, first compound 0.01 µM) 20.8%; (second compound 1 µM, first compound 0.0316 µM) 22.7%; (second compound 1 µM, first compound 0.1 µM) 20.9%; (second compound 1 µM, first compound 0.316 µM) 18.6%; (second compound 1 µM, first compound 1 µM) 12.4%.

As to `CC1(C)CCC(Nc2ncc(C(F)(F)F)c(-c3c[nH]c4c(P(C)(C)=O)c(C#N)ccc34)n2)CN1` (stereo not drawn), the viability, T/C was 93% [middle of 4 runs] (compound 0.003 µM); 78.1% [middle of 4 runs] (compound 0.00949 µM); 73.1% [middle of 4 runs] (compound 0.03 µM); 67.2% [middle of 4 runs] (compound 0.0949 µM); 69.9% [middle of 4 runs] (compound 0.3 µM). For the same compound, the IC50 (curve of compound) is > 300 nM.
